US20230085307A1, “PYRIDAZINONE COMPOUND AND HERBICIDE” (NISSAN CHEMICAL CORPORATION, priority 2019, published 2023)

Assays:
[1] = tested on: barnyard grass; assay: Test Example 3: herbicidal effect by foliage application, Wagner pot (Table 18, symbol H); format: in vivo, barnyard grass (Echinochloa crus-galli); conditions: 320 g/ha
Summary of the method: (§1)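 Plants were sown in alluvial soil held under 0.1–0.5 cm standing water and grown 14 days in a greenhouse at 25–30 °C. An emulsifiable formulation, water-diluted to the set dose, was then sprayed onto the foliage, and effects were scored three weeks later using previously defined criteria.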

[2] = tested on: Chinese sprangletop; assay: Test Example 3: herbicidal effect by foliage application, Wagner pot (Table 18, symbol D); format: in vivo, chinese sprangletop (Leptochloa chinensis); conditions: 320 g/ha
Summary of the method: as §1

[3] = tested on: rice flat sedge; assay: Test Example 3: herbicidal effect by foliage application, Wagner pot (Table 18, symbol E); format: in vivo, rice flat sedge (Cyperus iria); conditions: 320 g/ha
Summary of the method: as §1

[4] = tested on: southern crabgrass; assay: Test Example 4: herbicidal effect by soil treatment (Table 19, symbol F); format: in vivo, southern crabgrass (Digitaria ciliaris); conditions: AAH 320 g/ha
Summary of the method: (§2)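 Scoring uses the grading scale of an earlier test, three weeks post-application. Treatment consists of spraying a diluted emulsion formulation across the surface of sterilized diluvial soil in which seeds are buried near 1.5 cm deep; boxes are kept in a greenhouse between 25° C. and 30° C.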

[5] = tested on: green foxtail; assay: Test Example 4: herbicidal effect by soil treatment (Table 19, symbol G); format: in vivo, green foxtail (Setaria viridis); conditions: AAH 320 g/ha
Summary of the method: as §2

[6] = tested on: barnyard grass; assay: Test Example 4: herbicidal effect by soil treatment (Table 19, symbol H); format: in vivo, barnyard grass (Echinochloa crus-galli); conditions: AAH 320 g/ha
Summary of the method: as §2

[7] = tested on: wild oat; assay: Test Example 4: herbicidal effect by soil treatment (Table 19, symbol I); format: in vivo, wild oat (Avena fatua); conditions: AAH 320 g/ha
Summary of the method: as §2

[8] = tested on: blackgrass; assay: Test Example 4: herbicidal effect by soil treatment (Table 19, symbol J); format: in vivo, blackgrass (Alopecurus myosuroides); conditions: AAH 320 g/ha
Summary of the method: as §2

[9] = tested on: Italian ryegrass; assay: Test Example 4: herbicidal effect by soil treatment (Table 19, symbol K); format: in vivo, Italian ryegrass (Lolium multiflorum); conditions: AAH 320 g/ha
Summary of the method: as §2

[10] = tested on: windgrass; assay: Test Example 4: herbicidal effect by soil treatment (Table 19, symbol L); format: in vivo, windgrass (Apera spica-venti); conditions: AAH 320 g/ha
Summary of the method: as §2

[11] = tested on: velvetleaf; assay: Test Example 4: herbicidal effect by soil treatment (Table 19, symbol M); format: in vivo, velvetleaf (Abutilon theophrasti); conditions: AAH 320 g/ha
Summary of the method: as §2

[12] = tested on: redroot pigweed; assay: Test Example 4: herbicidal effect by soil treatment (Table 19, symbol N); format: in vivo, redroot pigweed (Amaranthus retroflexus); conditions: AAH 320 g/ha
Summary of the method: as §2

[13] = tested on: lambsquarters; assay: Test Example 4: herbicidal effect by soil treatment (Table 19, symbol O); format: in vivo, lambsquarters (Chenopodium album); conditions: AAH 320 g/ha
Summary of the method: as §2

[14] = tested on: chickweed; assay: Test Example 4: herbicidal effect by soil treatment (Table 19, symbol P); format: in vivo, common chickweed (Stellaria media); conditions: AAH 320 g/ha
Summary of the method: as §2

[15] = tested on: persian speedwell; assay: Test Example 4: herbicidal effect by soil treatment (Table 19, symbol R); format: in vivo, Persian speedwell (Veronica persica); conditions: AAH 320 g/ha
Summary of the method: as §2

[16] = tested on: southern crabgrass; assay: Test Example 5: herbicidal effect by foliage application, plastic box (Table 20, symbol F); format: in vivo, southern crabgrass (Digitaria ciliaris); conditions: foliage application, AAH 320 g/ha, three weeks after application
Summary of the method: (§3)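 Post-emergence foliar test in sterilized diluvial soil. Compound applied as water-diluted emulsion at a predetermined rate to 14-day-old plants; evaluation at three weeks.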

[17] = tested on: green foxtail; assay: Test Example 5: herbicidal effect by foliage application, plastic box (Table 20, symbol G); format: in vivo, green foxtail (Setaria viridis); conditions: foliage application, AAH 320 g/ha, three weeks after application
Summary of the method: as §3

[18] = tested on: barnyard grass; assay: Test Example 5: herbicidal effect by foliage application, plastic box (Table 20, symbol H); format: in vivo, barnyard grass (Echinochloa crus-galli); conditions: foliage application, AAH 320 g/ha, three weeks after application
Summary of the method: as §3

[19] = tested on: wild oat; assay: Test Example 5: herbicidal effect by foliage application, plastic box (Table 20, symbol I); format: in vivo, wild oat (Avena fatua); conditions: foliage application, AAH 320 g/ha, three weeks after application
Summary of the method: as §3

[20] = tested on: blackgrass; assay: Test Example 5: herbicidal effect by foliage application, plastic box (Table 20, symbol J); format: in vivo, blackgrass (Alopecurus myosuroides); conditions: foliage application, AAH 320 g/ha, three weeks after application
Summary of the method: as §3

[21] = tested on: Italian ryegrass; assay: Test Example 5: herbicidal effect by foliage application, plastic box (Table 20, symbol K); format: in vivo, Italian ryegrass (Lolium multiflorum); conditions: foliage application, AAH 320 g/ha, three weeks after application
Summary of the method: as §3

[22] = tested on: windgrass; assay: Test Example 5: herbicidal effect by foliage application, plastic box (Table 20, symbol L); format: in vivo, windgrass (Apera spica-venti); conditions: foliage application, AAH 320 g/ha, three weeks after application
Summary of the method: as §3

[23] = tested on: velvetleaf; assay: Test Example 5: herbicidal effect by foliage application, plastic box (Table 20, symbol M); format: in vivo, velvetleaf (Abutilon theophrasti); conditions: foliage application, AAH 320 g/ha, three weeks after application
Summary of the method: as §3

[24] = tested on: redroot pigweed; assay: Test Example 5: herbicidal effect by foliage application, plastic box (Table 20, symbol N); format: in vivo, redroot pigweed (Amaranthus retroflexus); conditions: foliage application, AAH 320 g/ha, three weeks after application
Summary of the method: as §3

[25] = tested on: lambsquarters; assay: Test Example 5: herbicidal effect by foliage application, plastic box (Table 20, symbol O); format: in vivo, lambsquarters (Chenopodium album); conditions: foliage application, AAH 320 g/ha, three weeks after application
Summary of the method: as §3

[26] = tested on: chickweed; assay: Test Example 5: herbicidal effect by foliage application, plastic box (Table 20, symbol P); format: in vivo, common chickweed (Stellaria media); conditions: foliage application, AAH 320 g/ha, three weeks after application
Summary of the method: as §3

[27] = tested on: persian speedwell; assay: Test Example 5: herbicidal effect by foliage application, plastic box (Table 20, symbol R); format: in vivo, Persian speedwell (Veronica persica); conditions: foliage application, AAH 320 g/ha, three weeks after application
Summary of the method: as §3

SMILES | herbicidal effect on H (barnyard grass), rating 0-5 [1] | herbicidal effect on D (Chinese sprangletop), rating 0-5 [2] | herbicidal effect on E (rice flat sedge), rating 0-5 [3] | F: southern crabgrass, herbicidal effect rating [4] | G: green foxtail, herbicidal effect rating [5] | H: barnyard grass, herbicidal effect rating [6] | I: wild oat, herbicidal effect rating [7] | J: blackgrass, herbicidal effect rating [8] | K: Italian ryegrass, herbicidal effect rating [9] | L: windgrass, herbicidal effect rating [10] | M: velvetleaf, herbicidal effect rating [11] | N: redroot pigweed, herbicidal effect rating [12] | O: lambsquarters, herbicidal effect rating [13] | P: chickweed, herbicidal effect rating [14] | R: persian speedwell, herbicidal effect rating [15] | F: southern crabgrass, herbicidal effect [16] | G: green foxtail, herbicidal effect [17] | H: barnyard grass, herbicidal effect [18] | I: wild oat, herbicidal effect [19] | J: blackgrass, herbicidal effect [20] | other results
CCCC(=O)Oc1c(OC)nn(C)c(=O)c1-c1c(-c2ccc(C#N)cc2)sc2ccccc12 [1-171] | 3 (Herbicidal rate of 40% or more and less than 70%) | 0 (Herbicidal rate of 5% or less (almost no effect)) | 4 (Herbicidal rate of 70% or more and less than 90%) | 5 (Herbicidal rate of 90% or more (almost completely withered)) | 0 (Herbicidal rate of 5% or less (almost no effect)) | 0 (Herbicidal rate of 5% or less (almost no effect)) | 0 (Herbicidal rate of 5% or less (almost no effect)) | 0 (Herbicidal rate of 5% or less (almost no effect)) | 0 (Herbicidal rate of 5% or less (almost no effect)) | 0 (Herbicidal rate of 5% or less (almost no effect)) | 0 (Herbicidal rate of 5% or less (almost no effect)) | 5 (Herbicidal rate of 90% or more (almost completely withered)) | 3 (Herbicidal rate of 40% or more and less than 70%) | 5 (Herbicidal rate of 90% or more (almost completely withered)) | 4 (Herbicidal rate of 70% or more and less than 90%) | 0 (Herbicidal rate of 5% or less (almost no effect)) | 0 (Herbicidal rate of 5% or less (almost no effect)) | 0 (Herbicidal rate of 5% or less (almost no effect)) | 0 (Herbicidal rate of 5% or less (almost no effect)) | 0 (Herbicidal rate of 5% or less (almost no effect)) | K: Italian ryegrass, herbicidal effect [21]: 0 (Herbicidal rate of 5% or less (almost no effect)); L: windgrass, herbicidal effect [22]: 0 (Herbicidal rate of 5% or less (almost no effect)); M: velvetleaf, herbicidal effect [23]: 4 (Herbicidal rate of 70% or more and less than 90%); N: redroot pigweed, herbicidal effect [24]: 5 (Herbicidal rate of 90% or more (almost completely withered)); O: lambsquarters, herbicidal effect [25]: 4 (Herbicidal rate of 70% or more and less than 90%); P: chickweed, herbicidal effect [26]: 5 (Herbicidal rate of 90% or more (almost completely withered)); R: persian speedwell, herbicidal effect [27]: 4 (Herbicidal rate of 70% or more and less than 90%)
COc1cc(F)ccc1-c1sc2ccccc2c1-c1c(O)c(OC)nn(C)c1=O [1-176] | 4 (Herbicidal rate of 70% or more and less than 90%) | 3 (Herbicidal rate of 40% or more and less than 70%) | 5 (Herbicidal rate of 90% or more (almost completely withered)) | 4 (Herbicidal rate of 70% or more and less than 90%) | 5 (Herbicidal rate of 90% or more (almost completely withered)) | 5 (Herbicidal rate of 90% or more (almost completely withered)) | 3 (Herbicidal rate of 40% or more and less than 70%) | 5 (Herbicidal rate of 90% or more (almost completely withered)) | 1 (Herbicidal rate of 5% or more and less than 20%) | 5 (Herbicidal rate of 90% or more (almost completely withered)) | 1 (Herbicidal rate of 5% or more and less than 20%) | 5 (Herbicidal rate of 90% or more (almost completely withered)) | 4 (Herbicidal rate of 70% or more and less than 90%) | 5 (Herbicidal rate of 90% or more (almost completely withered)) | 5 (Herbicidal rate of 90% or more (almost completely withered)) | 4 (Herbicidal rate of 70% or more and less than 90%) | 5 (Herbicidal rate of 90% or more (almost completely withered)) | 5 (Herbicidal rate of 90% or more (almost completely withered)) | 4 (Herbicidal rate of 70% or more and less than 90%) | 4 (Herbicidal rate of 70% or more and less than 90%) | K: Italian ryegrass, herbicidal effect [21]: 3 (Herbicidal rate of 40% or more and less than 70%); L: windgrass, herbicidal effect [22]: 5 (Herbicidal rate of 90% or more (almost completely withered)); M: velvetleaf, herbicidal effect [23]: 5 (Herbicidal rate of 90% or more (almost completely withered)); N: redroot pigweed, herbicidal effect [24]: 5 (Herbicidal rate of 90% or more (almost completely withered)); O: lambsquarters, herbicidal effect [25]: 5 (Herbicidal rate of 90% or more (almost completely withered)); P: chickweed, herbicidal effect [26]: 5 (Herbicidal rate of 90% or more (almost completely withered)); R: persian speedwell, herbicidal effect [27]: 5 (Herbicidal rate of 90% or more (almost completely withered))
CCCC(=O)Oc1c(OC)nn(C)c(=O)c1-c1c(-c2ccc(F)cc2OC)sc2ccccc12 [1-177] | 4 (Herbicidal rate of 70% or more and less than 90%) | 0 (Herbicidal rate of 5% or less (almost no effect)) | 4 (Herbicidal rate of 70% or more and less than 90%) | 3 (Herbicidal rate of 40% or more and less than 70%) | 5 (Herbicidal rate of 90% or more (almost completely withered)) | 3 (Herbicidal rate of 40% or more and less than 70%) | 3 (Herbicidal rate of 40% or more and less than 70%) | 0 (Herbicidal rate of 5% or less (almost no effect)) | 0 (Herbicidal rate of 5% or less (almost no effect)) | 0 (Herbicidal rate of 5% or less (almost no effect)) | 0 (Herbicidal rate of 5% or less (almost no effect)) | 5 (Herbicidal rate of 90% or more (almost completely withered)) | 2 (Herbicidal rate of 20% or more and less than 40%) | 5 (Herbicidal rate of 90% or more (almost completely withered)) | 4 (Herbicidal rate of 70% or more and less than 90%) | 3 (Herbicidal rate of 40% or more and less than 70%) | 5 (Herbicidal rate of 90% or more (almost completely withered)) | 4 (Herbicidal rate of 70% or more and less than 90%) | 3 (Herbicidal rate of 40% or more and less than 70%) | 4 (Herbicidal rate of 70% or more and less than 90%) | K: Italian ryegrass, herbicidal effect [21]: 1 (Herbicidal rate of 5% or more and less than 20%); L: windgrass, herbicidal effect [22]: 4 (Herbicidal rate of 70% or more and less than 90%); M: velvetleaf, herbicidal effect [23]: 4 (Herbicidal rate of 70% or more and less than 90%); N: redroot pigweed, herbicidal effect [24]: 5 (Herbicidal rate of 90% or more (almost completely withered)); O: lambsquarters, herbicidal effect [25]: 4 (Herbicidal rate of 70% or more and less than 90%); P: chickweed, herbicidal effect [26]: 5 (Herbicidal rate of 90% or more (almost completely withered)); R: persian speedwell, herbicidal effect [27]: 4 (Herbicidal rate of 70% or more and less than 90%)
